33 molecules from ChEMBL document CHEMBL3046574, “Synthesis and Insecticidal Activity of 2-Alkoxy-4H-l,3,2-benzoxazaphosphorin-2-thiones” (1992) can be followed below.

Common to all, as to assay type: functional
In assay [1] the test system is Laodelphax striatellus. The assay is described as follows: Insecticidal activity against Laodelphax striatella (small brown planthopper) assessed as mortality at 500 ppm by root soaking method.
For assay [2], the system named is Spodoptera litura. The assay is described as follows: Insecticidal activity against Spodoptera litura assessed as mortality at 1000 ppm by leaf dipping method. The settings on record: foliar.
Assay [3] deals with Laodelphax striatellus. Briefly: Insecticidal activity against Laodelphax striatella (small brown planthopper) assessed as mortality at 50 ppm by root soaking method.
The test system of assay [4] is Spodoptera litura. Briefly: Insecticidal activity against Spodoptera litura LC50 assessed as mortality by leaf dipping method. The settings on record: foliar.

Converted amounts (≈) assume the structure as drawn.

A word on the mortality: it is the percentage killed. In the case of `CCOP1(=S)Oc2ccccc2CN1CC` (stereo not given), in assay [1], the mortality at 500 ppm stood at 97%. In addition, the mortality at 1000 ppm in assay [2] worked out at 93%.

Regarding `CCCN1Cc2ccccc2OP1(=S)OCC` (stereo not given), the mortality at 500 ppm in assay [1] was found to be 40%. For the same molecule, the mortality at 1000 ppm in assay [2] turned out to be 73%.

Regarding `CCOP1(=S)Oc2ccccc2CN1C(C)C` (stereo not given), the mortality at 500 ppm in assay [1] amounted to 43%. Moreover, the mortality at 1000 ppm in assay [2] amounted to 90%.

Turning to `C=CCN1Cc2ccccc2OP1(=S)OC` (stereo not given), in assay [1], the mortality at 500 ppm worked out at 97%. Also, the mortality at 1000 ppm in assay [2] amounted to 93%.

Turning to `C=CCN1Cc2ccccc2OP1(=S)OCC` (stereo not given), in assay [1], the mortality at 500 ppm came to 50%. In addition, the mortality at 1000 ppm in assay [2] was 50%.

As to `CCOP1(=S)Oc2ccc(Cl)cc2CN1CC` (stereo not given), the mortality at 500 ppm in assay [1] was 10%. Further, in assay [2], the mortality at 1000 ppm stood at 20%.

Take `COP1(=S)Oc2ccc(Cl)cc2CN1C(C)C` (stereo not given): the mortality at 500 ppm in assay [1] was determined as 73%. For the same molecule, the mortality at 1000 ppm in assay [2] was found to be 40%.

Consider `CCOP1(=S)Oc2ccc(Cl)cc2CN1C(C)C` (stereo not given), for which the mortality at 500 ppm in assay [1] was determined as 87%. In addition, the mortality at 1000 ppm in assay [2] was determined as 33%.

As to `CCCOP1(=S)Oc2ccc(Cl)cc2CN1C(C)C` (stereo not given), in assay [1], the mortality at 500 ppm is 0%. Further, the mortality at 1000 ppm in assay [2] worked out at 0%.

For the molecule `CCCN1Cc2cc(Cl)ccc2OP1(=S)OCC` (stereo not given), the mortality at 500 ppm in assay [1] turned out to be 0%. Also, the mortality at 1000 ppm in assay [2] was found to be 0%.

Take `C=CCN1Cc2cc(Cl)ccc2OP1(=S)OCC` (stereo not given): the mortality at 500 ppm in assay [1] was determined as 0%. Further, the mortality at 1000 ppm in assay [2] is 0%.

As for `C=CCN1Cc2cc(Cl)ccc2OP1(=S)OCCC` (stereo not given), the mortality at 500 ppm in assay [1] turned out to be 0%. The mortality at 1000 ppm in assay [2] stood at 13%.

Regarding `CCOP1(=S)Oc2ccc(Cl)cc2CN1CC(C)C` (stereo not given), in assay [1], the mortality at 500 ppm turned out to be 0%. Besides, the mortality at 1000 ppm in assay [2] worked out at 30%.

For the molecule `CCCOP1(=S)Oc2ccc(Cl)cc2CN1CC(C)C` (stereo not given), the mortality at 500 ppm in assay [1] is 0%. In assay [2], the mortality at 1000 ppm was 0%.

Take `CCOP1(=S)Oc2cc(Cl)c(Cl)cc2CN1CC(C)C` (stereo not given): the mortality at 500 ppm in assay [1] turned out to be 0%. Besides, the mortality at 1000 ppm in assay [2] was 57%.

As to `CCCOP1(=S)Oc2cc(Cl)c(Cl)cc2CN1CC(C)C` (stereo not given), the mortality at 500 ppm in assay [1] was 0%. In addition, the mortality at 1000 ppm in assay [2] was found to be 17%.

In the case of `CCOP1(=S)Oc2ccc(Br)cc2CN1CC` (stereo not given), in assay [1], the mortality at 500 ppm was 0%. The mortality at 1000 ppm in assay [2] came to 27%.

Turning to `COP1(=S)Oc2ccc(Br)cc2CN1C(C)C` (stereo not given), the mortality at 500 ppm in assay [1] is 100%. Besides, the mortality at 1000 ppm in assay [2] was found to be 60%. Also, the mortality at 50 ppm in assay [3] came out at 85%.

As to `CCOP1(=S)Oc2ccc(Br)cc2CN1C(C)C` (stereo not given), in assay [1], the mortality at 500 ppm turned out to be 100%. Besides, the mortality at 1000 ppm in assay [2] came out at 63%. In addition, the mortality at 50 ppm in assay [3] is 87%.

In the case of `C=CCN1Cc2cc(Br)ccc2OP1(=S)OC` (stereo not given), in assay [1], the mortality at 500 ppm was found to be 0%. For the same molecule, the mortality at 1000 ppm in assay [2] was 18%.

For the molecule `C=CCN1Cc2cc(Br)ccc2OP1(=S)OCC` (stereo not given), in assay [1], the mortality at 500 ppm was 0%. The mortality at 1000 ppm in assay [2] was 20%.

As for `C=CCN1Cc2cc(Br)ccc2OP1(=S)OCCC` (stereo not given), the mortality at 500 ppm in assay [1] was found to be 0%. Further, the mortality at 1000 ppm in assay [2] is 0%.

As to `COP1(=S)Oc2ccc(Br)cc2CN1CC(C)C` (stereo not given), the mortality at 500 ppm in assay [1] was 0%. Besides, the mortality at 1000 ppm in assay [2] worked out at 0%.

For `CCOP1(=S)Oc2ccc(Br)cc2CN1CC(C)C` (stereo not given), the mortality at 500 ppm in assay [1] is 0%. Moreover, the mortality at 1000 ppm in assay [2] amounted to 0%.

For `CCCOP1(=S)Oc2ccc(Br)cc2CN1CC(C)C` (stereo not given), in assay [1], the mortality at 500 ppm stood at 0%. Also, the mortality at 1000 ppm in assay [2] was 0%.

Regarding `CCOP1(=S)Oc2cc(Br)c(Br)cc2CN1C(C)C` (stereo not given), the mortality at 500 ppm in assay [1] was 0%. Also, the mortality at 1000 ppm in assay [2] came out at 0%.

Take `CCN1Cc2cc([N+](=O)[O-])ccc2OP1(=S)OC` (stereo not given): the mortality at 500 ppm in assay [1] worked out at 0%. Also, the mortality at 1000 ppm in assay [2] worked out at 0%.

Take `CCOP1(=S)Oc2ccc([N+](=O)[O-])cc2CN1CC` (stereo not given): the mortality at 500 ppm in assay [1] worked out at 0%. The mortality at 1000 ppm in assay [2] came out at 0%.

`CCCOP1(=S)Oc2ccc([N+](=O)[O-])cc2CN1CC` (stereo not given): in assay [1], the mortality at 500 ppm amounted to 0%. In addition, in assay [2], the mortality at 1000 ppm is 0%.

For the molecule `CCOP1(=S)Oc2ccc([N+](=O)[O-])cc2CN1C(C)C` (stereo not given), in assay [1], the mortality at 500 ppm stood at 0%. Also, the mortality at 1000 ppm in assay [2] worked out at 0%.

On to `CCN1Cc2ccccc2OP1(=S)OC` (stereo not given), for which, in assay [1], the mortality at 500 ppm was found to be 83%. Besides, the mortality at 1000 ppm in assay [2] was found to be 97%.

Broadly, the LC50 is the concentration lethal to half of the exposed cells or organisms. Consider `CCOC(=O)CC(SP(=S)(OC)OC)C(=O)OCC` (stereo not given) [MALATHION], for which, in assay [1], the mortality at 500 ppm was 100%. For the same molecule, the mortality at 1000 ppm in assay [2] came to 100%. In assay [3], the mortality at 50 ppm came to 100%. For the same molecule, the 50% lethal concentration (LC50) in assay [4] was 8.3 µg/mL (≈ 25.1 µM).

As for `CNC(=O)Oc1ccccc1OC(C)C` [PROPOXUR], the mortality at 500 ppm in assay [1] stood at 100%. The mortality at 50 ppm in assay [3] turned out to be 16.1%.
